Columns and labels:
[1] = molecular target: T1, Acetylcholinesterase (Homo sapiens, UniProt P22303); assay: Inhibition of acetylcholinesterase (unknown origin) using acetylthiocholine as substrate preincubated for 30 mins followed by substrate addition and measured after 2 mins by Ellman's method
[2] = molecular target: T1, Acetylcholinesterase; assay: Inhibition of acetylcholinesterase (unknown origin) at 0.01 to 100 uM using acetylthiocholine as substrate preincubated for 30 mins followed by substrate addition and measured after 2 mins by Ellman's method relative to control

T1 sequence (P22303 whole entry): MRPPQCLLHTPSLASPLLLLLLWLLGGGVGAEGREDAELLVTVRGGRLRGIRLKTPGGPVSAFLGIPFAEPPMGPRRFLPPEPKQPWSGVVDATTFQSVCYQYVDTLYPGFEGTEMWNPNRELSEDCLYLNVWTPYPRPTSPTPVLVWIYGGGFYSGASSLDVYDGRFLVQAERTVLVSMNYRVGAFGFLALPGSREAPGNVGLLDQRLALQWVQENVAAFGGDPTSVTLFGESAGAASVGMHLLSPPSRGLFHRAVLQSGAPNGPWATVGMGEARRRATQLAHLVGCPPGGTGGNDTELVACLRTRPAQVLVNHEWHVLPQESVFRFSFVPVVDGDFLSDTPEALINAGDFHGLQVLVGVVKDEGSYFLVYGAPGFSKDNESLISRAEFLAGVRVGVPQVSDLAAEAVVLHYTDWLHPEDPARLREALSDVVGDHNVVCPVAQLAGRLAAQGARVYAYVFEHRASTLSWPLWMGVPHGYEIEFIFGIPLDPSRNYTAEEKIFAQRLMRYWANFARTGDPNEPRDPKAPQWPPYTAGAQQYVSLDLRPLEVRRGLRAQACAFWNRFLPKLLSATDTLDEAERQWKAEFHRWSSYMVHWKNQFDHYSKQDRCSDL

Molecule COc1cc([C@H]2OC[C@H]3[C@@H]2CO[C@@H]3c2cc(OC)c3c(c2)OCO3)cc(OC)c1OC has an IC50 [1] of 460 nM and an inhibition [2] of 81%.
For COc1ccc([C@H]2OC[C@H]3[C@@H]2CO[C@@H]3c2cc(OC)c(OC)c(OC)c2)cc1OC, the IC50 [1] was 903 nM and the inhibition [2] was greater than 90%.
COc1ccc([C@H]2O[C@@H](O)[C@H]3[C@@H]2C(=O)O[C@@H]3c2ccc(OC)c(OC)c2)cc1OC gave an IC50 [1] of 28 nM and an inhibition [2] greater than 70%.
Work on COc1ccc([C@H](O)[C@H](N)C(=O)O)cc1OC yielded an IC50 [1] of 1 nM and an inhibition [2] greater than 70%.
Work on COc1ccc([C@H]2OC[C@H]3[C@@H]2C(=O)O[C@@H]3c2ccc3c(c2)OCO3)cc1OC yielded an IC50 [1] of 2230 nM and an inhibition [2] greater than 70%.
Molecule COc1ccc([C@H]2OC(=O)[C@H]3[C@@H]2C(=O)O[C@@H]3c2ccc3c(c2)OCO3)cc1OC has an IC50 [1] of 158 nM and an inhibition [2] greater than 90%.
For COc1ccc([C@H]2O[C@@H](O)[C@H]3[C@@H]2C(=O)O[C@@H]3c2cc(OC)c3c(c2)OCO3)cc1OC, the IC50 [1] was 3 nM and the inhibition [2] was greater than 70%.
COc1cc([C@H]2OC[C@H]3[C@@H]2CO[C@@H]3c2cc(OC)c(OC)c(OC)c2)cc(OC)c1OC showed an IC50 [1] of 616 nM and an inhibition [2] of 65%.
